Tests used:
[1] = tested on: HeLaHL human cervical carcinoma tumor cells; test: Nude mouse xenograft study: in vivo growth of HeLaHL tumors, Compound 1 with or without fractionated ionizing radiation; settings: HeLaHL xenograft in Nude mice
Protocol: The human cervical carcinoma cancer cell line, HeLaHL, carrying a human Hsp70 promoter-luciferase reporter construct, was obtained from the laboratory of Dr. Richard Morimoto (Northwestern University, Evanston, Ill., USA). The cells were cultured in Dulbecco's Modified Eagle growth media prepared with 10% fetal bovine serum (FBS), 1% 100×HEPES, 1% 100× Penicillin-Streptomycin, 1% 100×L-glutamine, 1% 100× sodium pyruvate and 1% 100×MEM non-essential amino acids. FBS was obtained from American Type Culture Collection (Manassas, Va., USA) and all other reagents were obtained from Invitrogen Corp. (Carlsbad, Calif., USA). Cells that had been cryopreserved in liquid nitrogen were rapidly thawed at 37° C. and transferred to a tissue culture flask containing growth media and then incubated at 37° C. in a 5% CO2 incubator. To expand the cell line, cultures were passaged every 3 to 4 days by washing with 10 mL of room temperature phosphate buffered saline (PBS) and then disassociating cells by adding 5 mL 1× trypsin-EDTA until the cells detached from the surface of the flask. […]
Eight week old, female homozygous Crl:CD1-Foxn1^nu/nu (Nude) mice were obtained from Charles River Laboratories (Wilmington, Mass., USA). […] Cell concentration was determined using a hemocytometer. […] Tumor volumes (V) were calculated by caliper measurement of the width (W), length (L) and thickness (T) of tumors using the following formula: V=0.5236×(L×W×T).
HeLaHL tumors were then permitted to develop in vivo until the majority reached 90-240 mm^3 in tumor volume, which required approximately 2½ weeks following implantation. […] Animals were randomized into treatment groups so that the average tumor volumes of each group were similar at the start of dosing. % T/C values, as a measure of efficacy, were determined as follows: • (i) If ΔT>0: % T/C=(ΔT/ΔC)×100 • (ii) If ΔT<0: % T/C=(ΔT/T0)×100 • (iii) ΔT=Change in average tumor volume between start of dosing and the end of study. • (iv) ΔC=Change in average tumor volume between start of dosing and the end of study. • (v) T0=Average tumor volume at start of dosing. […]

[2] = Body weight and systemic toxicity in HeLaHL tumor-bearing Nude mice of the xenograft study; type: in vivo; settings: for animals removed from the study due to >20% body weight loss: 8 mice/group; for average bodyweight change relative to the start of the study: over the course of the study
Protocol: Eight week old, female homozygous Crl:CD1-Foxn1^nu/nu (Nude) mice were obtained from Charles River Laboratories (Wilmington, Mass., USA). Animals were housed 4-5/cage in micro-isolators, with a 12 hr/12 hr light/dark cycle, acclimated for at least 1 week prior to use and fed normal laboratory chow ad libitum. Studies were conducted on animals at 10 weeks of age at implantation. To implant HeLaHL tumor cells into Nude mice, cell cultures were trypsinized as above and centrifuged to pellet the cells. The supernatant was aspirated and the cell pellet was resuspended at a concentration of 1×10^8 cells/mL in non-supplemented media. Cell concentration was determined using a hemocytometer. Using a 27 gauge needle and 1 cc syringe, 0.1 mL of the cell suspension was injected subcutaneously into the flanks of Nude mice. Tumor volumes (V) were calculated by caliper measurement of the width (W), length (L) and thickness (T) of tumors using the following formula: V=0.5236×(L×W×T).
To formulate Compound 1 in 10/18 DRD, stock solutions of Compound 1 were prepared by dissolving the appropriate amounts of the compound in dimethyl sulfoxide (DMSO) by sonication in an ultrasonic water bath. Stock solutions were prepared weekly, stored at −20° C. and diluted fresh each day for dosing. A solution of 20% Cremophor RH40 (polyoxyl 40 hydrogenated castor oil; BASF Corp., Aktiengesellschaft, Ludwigshafen, Germany) in 5% dextrose in water (D5W; Abbott Laboratories, North Chicago, Ill., USA) was also prepared by first heating 100% Cremophor RH40 at 50-60° C. until liquefied and clear, diluting 1:5 with 100% D5W, reheating again until clear and then mixing well. This solution was stored at room temperature for up to 3 months prior to use. To prepare 10/18 DRD formulations for daily dosing, DMSO stock solutions were diluted 1:10 with 20% Cremophor RH40. The final 10/18 DRD formulation for dosing contained 10% DMSO, 18% Cremophor RH40, 3.6% dextrose, 68.4% water and the appropriate amount of test article. Animals were intravenously (i.v.) injected with this formulation at 10 mL per kg body weight on one day each week (on the same day with one of the 3 weekly radiation doses) for a total of 4 doses.
Animals were irradiated using a calibrated ^137Cs gamma-ray (0.662 MeV) Model 30 Mark I irradiator (J. L. Shepherd & Associates, San Fernando, Calif., USA). Tumor-bearing animals were anesthetized for approximately 4 minutes with inhaled isoflurane (IsoFlo, Abbott Laboratories, North Chicago, Ill., USA) delivered on a stream of oxygen at 0.8 L/min and 3% volume/volume on a mobile anesthesia machine (VetEquip, Pleasanton, Calif., USA). […] Anesthetized animals were positioned in the irradiator approximately 2.5 cm in front of the ^137Cs source using a restraint device capable of holding 5 animals (J. L Shepherd & Associates). Ionizing radiation was focused on the subcutaneously implanted HeLaHL tumors through a 1 cm wide collimator (J. L. […]
The ability of Compound 1 to enhance the in vivo anti-tumor activity of ionizing radiation was investigated. Tumor-bearing animals (8 mice/group) were i.v. injected 1 time per week for a total of 4 doses (open arrowheads) with 10 mL/kg of 10/18 DRD vehicle with or without 150 mg/kg Compound 1. Animals were also irradiated 3 times per week for a total of 12 doses (closed arrowheads) with 2 Gy radiation. In the combination treatment group, animals were dosed with Compound 15 hr before being irradiated on days on which both treatments were delivered together. Each group that was not dosed with Compound 1 was instead dosed with 10/18 DRD vehicle as a mock treatment. Each group that was not irradiated was instead anesthetized and restrained as a mock irradiation. Average tumor volumes for each group were determined every 3-5 days (error bars represent +/−SEM). […]

CC(C)c1cc(-c2nnc(O)n2-c2ccc3c(ccn3C)c2)c(O)cc1O [Compound 1, 3-(2,4-dihydroxy-5-isopropyl-phenyl)-4-(1-methyl-indol-5-yl)-5-hydroxy-[1,2,4] triazole]
% T/C value ([1]; 150 mg/kg Compound 1 alone, i.v., 1 time per week, 4 doses, 10/18 DRD, mock irradiation): 28%
% T/C value ([1]; 150 mg/kg Compound 1 i.v. 1 time per week combined with 2 Gy radiation 3 times per week (12 doses), Compound 1 dosed 5 hr before irradiation): −36%
% T/C value ([1]; 150 mg/kg Compound 1 i.v. 1 time per week combined with 3-4 Gy radiation 3 times per week (4 Gy reduced to 3 Gy on Day 40), Compound 1 dosed 5 hr before irradiation): −73%
death due to excessive body weight loss ([2]; 2 Gy radiation combined with 150 mg/kg Compound 1, among the animals removed from the study): One of the animals removed later died on Day 45
animals removed from the study due to >20% body weight loss ([2]; 2 Gy radiation combined with 150 mg/kg Compound 1, toxicity on Day 42): 2/8
animals removed from the study due to >20% body weight loss ([2]; 4 Gy radiation combined with 150 mg/kg Compound 1, toxicity on Day 34): 1/8
average bodyweight change relative to the start of the study ([2]; Compound 1 150 mg/kg plus 2 Gy radiation 3 times per week): 0.4%
average bodyweight change relative to the start of the study ([2]; Compound 1 150 mg/kg plus 3-4 Gy radiation 3 times per week): 1.2%
average bodyweight change relative to the start of the study ([2]; Compound 1 alone, 150 mg/kg i.v. 1 time per week): 3.2%
